Data from PubChem BioAssay AID1963838 (Molecular Pharmacology Branch, DTP, NCI, 2024).

Test system: 855422-203-R-J1-PDC complex spheroid viability
Experiment: Anticancer human tumor 855422-203-R-J1-PDC patient-derived bladder carcinoma cell line growth inhibition [POLQ]
Settings: for IC50: curve of first compound; for viability, T/C: stronger effect = lower value
Method in brief: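 PDC + HUVEC + MSC complex spheroids; POLQ inhibitors ± partner drugs; top conc. at/near clinical Cmax, else 10 microM (SN-38 1 microM), half-log dilutions; 37 degrees C, 5% CO2.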

[1] = second compound 0.0316 µM, first compound 0.0316 µM
[2] = second compound 0.0316 µM, first compound 0.1 µM
[3] = second compound 0.0316 µM, first compound 0.316 µM
[4] = second compound 0.0316 µM, first compound 1 µM
[5] = second compound 0.0316 µM, first compound 3.16 µM
[6] = second compound 0.0316 µM, first compound 10 µM
[7] = second compound 0.1 µM, first compound 0.0316 µM
[8] = second compound 0.1 µM, first compound 0.1 µM
[9] = second compound 0.1 µM, first compound 0.316 µM
[10] = second compound 0.1 µM, first compound 1 µM
[11] = second compound 0.1 µM, first compound 3.16 µM
[12] = second compound 0.1 µM, first compound 10 µM
[13] = second compound 0.316 µM, first compound 0.0316 µM
[14] = second compound 0.316 µM, first compound 0.1 µM
[15] = second compound 0.316 µM, first compound 0.316 µM
[16] = second compound 0.316 µM, first compound 1 µM
[17] = second compound 0.316 µM, first compound 3.16 µM
[18] = second compound 0.316 µM, first compound 10 µM
[19] = second compound 1 µM, first compound 0.0316 µM
[20] = second compound 1 µM, first compound 0.1 µM
[21] = second compound 1 µM, first compound 0.316 µM
[22] = second compound 1 µM, first compound 1 µM
[23] = second compound 1 µM, first compound 3.16 µM
[24] = second compound 1 µM, first compound 10 µM
[25] = second compound 3.16 µM, first compound 0.0316 µM
[26] = second compound 3.16 µM, first compound 0.1 µM
[27] = second compound 3.16 µM, first compound 0.316 µM
[28] = second compound 3.16 µM, first compound 1 µM
[29] = second compound 3.16 µM, first compound 3.16 µM
[30] = second compound 3.16 µM, first compound 10 µM
[31] = second compound 10 µM, first compound 0.0316 µM
[32] = second compound 10 µM, first compound 0.1 µM
[33] = second compound 10 µM, first compound 0.316 µM
[34] = second compound 10 µM, first compound 1 µM
[35] = second compound 10 µM, first compound 3.16 µM
[36] = second compound 10 µM, first compound 10 µM
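Also: spheroids exposed to compounds for seven days before readout.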

CCc1cc2c(N3CCc4c(cc(Cn5ccnc5)cc4-c4cn(C)nc4C(F)(F)F)C3=O)ccnc2c(OC)n1 + COC1C(OC(N)=O)C(O)C(Oc2ccc3c(O)c(NC(=O)c4ccc(O)c(CC=C(C)C)c4)c(=O)oc3c2C)OC1(C)C
IC50 (second compound 0.0316 µM): 4.02 µM | IC50 (second compound 0.1 µM): 3.41 µM | IC50 (second compound 0.316 µM): 2.73 µM | IC50 (second compound 1 µM): 2.6 µM | IC50 (second compound 3.16 µM): 2.05 µM | IC50 (second compound 10 µM): 2.22 µM | viability, T/C [1]: 83.6% | viability, T/C [2]: 95% | viability, T/C [3]: 83.4% | viability, T/C [4]: 69.5% | viability, T/C [5]: 55.9% | viability, T/C [6]: 34.5% | viability, T/C [7]: 88.2% | viability, T/C [8]: 82.8% | viability, T/C [9]: 84.1% | viability, T/C [10]: 66.8% | viability, T/C [11]: 52.6% | viability, T/C [12]: 28.5% | viability, T/C [13]: 93.3% | viability, T/C [14]: 80.3% | viability, T/C [15]: 93.2% | viability, T/C [16]: 75.1% | viability, T/C [17]: 46.7% | viability, T/C [18]: 31% | viability, T/C [19]: 87.9% | viability, T/C [20]: 76.9% | viability, T/C [21]: 71.2% | viability, T/C [22]: 65.1% | viability, T/C [23]: 46.6% | viability, T/C [24]: 28.6% | viability, T/C [25]: 89.5% | viability, T/C [26]: 90% | viability, T/C [27]: 68.9% | viability, T/C [28]: 67.3% | viability, T/C [29]: 40% | viability, T/C [30]: 28.1% | viability, T/C [31]: 99.3% | viability, T/C [32]: 76% | viability, T/C [33]: 80.3% | viability, T/C [34]: 72.9% | viability, T/C [35]: 39.3% | viability, T/C [36]: 31.9%

COc1cc2cc(C(=O)CCC(=O)O)sc2cc1OC + COC1C(OC(N)=O)C(O)C(Oc2ccc3c(O)c(NC(=O)c4ccc(O)c(CC=C(C)C)c4)c(=O)oc3c2C)OC1(C)C
IC50 (second compound 0.0316 µM): > 10 µM | IC50 (second compound 0.1 µM): > 10 µM | IC50 (second compound 0.316 µM): > 10 µM | IC50 (second compound 1 µM): > 10 µM | IC50 (second compound 3.16 µM): > 10 µM | IC50 (second compound 10 µM): > 10 µM | viability, T/C [1]: 105% | viability, T/C [2]: 97.2% | viability, T/C [3]: 115% | viability, T/C [4]: 106% | viability, T/C [5]: 99.8% | viability, T/C [6]: 101% | viability, T/C [7]: 83.2% | viability, T/C [8]: 111% | viability, T/C [9]: 105% | viability, T/C [10]: 98.8% | viability, T/C [11]: 111% | viability, T/C [12]: 88.2% | viability, T/C [13]: 115% | viability, T/C [14]: 101% | viability, T/C [15]: 110% | viability, T/C [16]: 106% | viability, T/C [17]: 113% | viability, T/C [18]: 101% | viability, T/C [19]: 104% | viability, T/C [20]: 105% | viability, T/C [21]: 90.5% | viability, T/C [22]: 109% | viability, T/C [23]: 99.5% | viability, T/C [24]: 94.6% | viability, T/C [25]: 98% | viability, T/C [26]: 102% | viability, T/C [27]: 110% | viability, T/C [28]: 111% | viability, T/C [29]: 114% | viability, T/C [30]: 86.4% | viability, T/C [31]: 104% | viability, T/C [32]: 107% | viability, T/C [33]: 105% | viability, T/C [34]: 104% | viability, T/C [35]: 95.7% | viability, T/C [36]: 82.8%

COc1ccc([C@@H](O)c2cc(-c3ncnc4cc(N5CCOCC5)ccc34)c(F)cc2Cl)nn1 + COC1C(OC(N)=O)C(O)C(Oc2ccc3c(O)c(NC(=O)c4ccc(O)c(CC=C(C)C)c4)c(=O)oc3c2C)OC1(C)C
IC50 (second compound 0.0316 µM): 6.47 µM | IC50 (second compound 0.1 µM): 6.5 µM | IC50 (second compound 0.316 µM): 6.58 µM | IC50 (second compound 1 µM): 6.17 µM | IC50 (second compound 3.16 µM): 6.5 µM | IC50 (second compound 10 µM): 6.48 µM | viability, T/C [1]: 107% | viability, T/C [2]: 102% | viability, T/C [3]: 95.7% | viability, T/C [4]: 81.1% | viability, T/C [5]: 71.9% | viability, T/C [6]: 37.7% | viability, T/C [7]: 90.4% | viability, T/C [8]: 113% | viability, T/C [9]: 101% | viability, T/C [10]: 89.8% | viability, T/C [11]: 68.6% | viability, T/C [12]: 39.1% | viability, T/C [13]: 119% | viability, T/C [14]: 121% | viability, T/C [15]: 101% | viability, T/C [16]: 86.9% | viability, T/C [17]: 64.5% | viability, T/C [18]: 41.9% | viability, T/C [19]: 110% | viability, T/C [20]: 108% | viability, T/C [21]: 93.8% | viability, T/C [22]: 98.7% | viability, T/C [23]: 68.7% | viability, T/C [24]: 35.3% | viability, T/C [25]: 109% | viability, T/C [26]: 107% | viability, T/C [27]: 106% | viability, T/C [28]: 84.8% | viability, T/C [29]: 73.2% | viability, T/C [30]: 37.2% | viability, T/C [31]: 121% | viability, T/C [32]: 110% | viability, T/C [33]: 110% | viability, T/C [34]: 91.2% | viability, T/C [35]: 71.7% | viability, T/C [36]: 36.9%
